The values that follow come from patent US10023519B2, “Cyclobutane containing carboxylic acid GPR120 modulators” (BRISTOL-MYERS SQUIBB COMPANY, priority 2014, dated 2018).

In the first assay the test system is C57BL/6 mice. The experiment in a line: Acute Oral Glucose Tolerance Test. It is filed as in vivo, mouse. The note with it: dosed at 30 mg/kg orally 60 min before glucose challenge (2 g/kg), AUC t=0-120 min compared to vehicle. On the procedure:
In Vivo GPR120 Assays 1) Acute Oral Glucose Tolerance Test
C57BL/6 mice were housed individually and fed a standard rodent chow diet. At approximately 11 weeks age, after a 5 h fast, these mice were orally treated with vehicle or test compounds 60 min before a glucose challenge (2 g/kg). Blood glucose levels were determined from tail bleeds taken at −60, 0, 15, 30, 60 and 120 min after the glucose challenge. […] This AUC for compound treatment is compared to vehicle treatment.
For the compound `O=C(O)CO[C@H]1C[C@@H](c2ccc(-c3cc(Oc4ccccc4)ccc3F)cc2)C1` [Example 1, Cis-2-(-3-(2′-fluoro-5′-phenoxy-[1,1′-biphenyl]-4-yl)cyclobutoxy)acetic acid], the “reduced glucose AUC” value amounted to 42%.

Another assay deals with human GPR120 (Homo sapiens (Human), UniProt Q5NUL3). The experiment in a line: GPR120 pERK AlphaScreen SureFire Assay (human). It is filed as cell-based. The note with it: CHO cells stably transfected with short form of human GPR120.
Chain of human GPR120 (Q5NUL3 whole entry): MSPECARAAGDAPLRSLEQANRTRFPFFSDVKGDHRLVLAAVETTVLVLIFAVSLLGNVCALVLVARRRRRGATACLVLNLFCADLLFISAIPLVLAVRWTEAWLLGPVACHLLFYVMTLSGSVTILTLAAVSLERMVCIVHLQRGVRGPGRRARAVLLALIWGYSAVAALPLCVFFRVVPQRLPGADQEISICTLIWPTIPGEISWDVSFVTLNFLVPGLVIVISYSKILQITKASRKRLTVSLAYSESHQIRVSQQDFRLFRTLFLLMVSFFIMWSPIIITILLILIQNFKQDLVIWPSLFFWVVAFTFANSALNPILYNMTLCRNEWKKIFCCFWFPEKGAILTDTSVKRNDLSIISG
From the text: GPR120 activity was monitored by measuring phosphorylation of ERK (pERK), since G protein receptors are known to activate the ERK signaling cascade either directly and/or through recruitment of arrestin that serves as a scaffold for downstream signaling events.
GPR120 pERK AlphaScreen SureFire Assay
The human and mouse GPR120-mediated intracellular phosphorylated ERK assays were established using CHOA12 cells stably transfected with the short form of human or mouse GPR120 receptor. […] Cells were cryo preserved at a concentration of 2×10^7 cells/mL, in 90% Charcoal/Dextran FBS and 10% DMSO, and frozen in liquid nitrogen at a low passage number.
The flasks were placed in a tissue culture incubator overnight (37° C., 5% CO2). […] The next day, cells were serum starved in 30 μL of F-12 media without any serum or antibiotics for 2 hours at 37° C.
Cells were then stimulated with 50 nL of compound dilutions using ECHO liquid handler for 7 minutes at 37° C.
(§1) The lysis buffer was diluted 5-fold with water before use. […] The SureFire assay reagent mix was prepared by mixing 60 parts Reaction Buffer, 10 parts Activation Buffer, 1 part Donor Beads, 1 part Acceptor Beads (Perkin Elmer Cat. #TGRES10K). 3.5 μL/well of this reagent mix was manually added to the proxiplate with a multichannel pipettor. Plates were spun down at 1000 rpm for 2 minutes, followed by light-protected incubation at room temperature for 2 hours. The plates were read on the Alpha-technology compatible Envision multilabel plate reader using AlphaScreen protocol according to manufacturer's specifications. The agonist effect of compounds was expressed as 100× (average sample−average blank)/(average total−average blank) where sample is the luminescence activity in the presence of test compound, blank is equal to the luminescence activity in the presence of DMSO control and the total is signal induced by 50 μM linolenic acid as reference compound. Activation data for the test compound over a range of concentrations was plotted as percentage activation of the test compound (100%=maximum response). After correcting for background, EC50 values were determined.
The human and mouse GPR120-mediated intracellular phosphorylated ERK assays were also established using CHO-K1 cells stably transfected with the short form of human or mouse GPR120 receptor. […] Cells were cryo preserved at a concentration of 3×10^6 cells/mL, in 70% F-12, 20% Charcoal/Dextran FBS and 10% DMSO, and frozen in liquid nitrogen at a low passage number.
The flasks were placed in a tissue culture incubator overnight (37° C., 5% CO2).
Cells were then stimulated with 40 nL of compound dilutions using ECHO liquid handler for 7 minutes at 37° C.
as §1, with “compound.” for “compound. Activation data for the test compound over a range of concentrations was plotted as percentage activation of the test compound (100%=maximum response). After correcting for background, EC50 values were determined.”
Activation data for the test compound over a range of concentrations was plotted as percentage activation of the test compound (100%=maximum response). After correcting for background, EC50 values were determined.
For orientation: Bead proximity is the source of the signal in Alpha formats.
Turning to `O=C(O)CO[C@H]1C[C@@H](c2ccc(-c3cc(Oc4ccccc4)ccc3F)cc2)C1` [Example 1, Cis-2-(-3-(2′-fluoro-5′-phenoxy-[1,1′-biphenyl]-4-yl)cyclobutoxy)acetic acid], a half-maximal response (EC50) required 170 nM.
Same read-out and setting: for `O=C(O)[C@H]1C[C@@H]1COCC1CC(c2cccc(Oc3ccccc3)c2)C1` (relative stereo) [Example 63, Trans-2-(((3-(3-phenoxyphenyl)cyclobutyl)methoxy)methyl)cyclopropanecarboxylic acid] the value was 1260 nM; for `O=C(O)CO[C@H]1C[C@@H](c2ccc(-c3cc(Oc4ccc(F)cc4)cc(F)c3F)cc2)C1` [Example 34, Cis-2-(3-(2′,3′-difluoro-5′-(4-fluorophenoxy)-[1,1′-biphenyl]-4-yl)cyclobutoxy)acetic acid], 240 nM; for `Cc1cc(OC(C)C)cc(-c2ccc([C@H]3C[C@@H](OCC(=O)O)C3)cc2)c1` [Example 12, Cis-2-(3-(3′-isopropoxy-5′-methyl-[1,1′-biphenyl]-4-yl)cyclobutoxy) acetic acid], 430 nM.
`COc1cc(OC(C)C)cc(-c2ccc([C@H]3C[C@@H](OCC(=O)O)C3)cc2)c1` [Example 19, Cis-2-(3-(3′-isopropoxy-5′-methoxy-[1,1′-biphenyl]-4-yl)cyclobutoxy)acetic acid]: the concentration giving a half-maximal response (EC50) came out at 1590 nM. This EC50 lies about 3.7-fold higher than the previous one.
Still for that read-out and setting: the value for `O=C(O)CO[C@H]1C[C@@H](c2ccc(-c3cc(OC4CCCOC4)ccc3F)cc2)C1` (stereo partly drawn) [Example 30, Cis2-(3-(2′-fluoro-5′-((tetrahydro-2H-pyran-3-yl)oxy)-[1,1′-biphenyl]-4-yl)cyclobutoxy)acetic acid] was 1400 nM; that for `Cc1ccc(Oc2cc(F)c(F)c(-c3ccc([C@H]4C[C@@H](OCC(=O)O)C4)cc3)c2)cc1F` [Example 35, Cis-2-(3-(2′,3′-difluoro-5′-(3-fluoro-4-methylphenoxy)-[1,1′-biphenyl]-4-yl)cyclobutoxy)acetic acid] was 290 nM; that for `O=C(O)COCC1CC(OCc2cccc(Oc3ccccc3)c2)C1` (stereo not drawn) [Example 54, 2-((3-(3-Phenoxybenzyloxy)cyclobutyl)methoxy)acetic acid] was 3850 nM.
Same read-out and setting: the value for `COc1ccc(OC(F)(F)F)cc1-c1ccc([C@H]2C[C@@H](OCC(=O)O)C2)cc1` [Example 16, Cis-2-(3-(2′-methoxy-5′-(trifluoromethoxy)-[1,1′-biphenyl]-4-yl)cyclobutoxy)acetic acid] was 480 nM; that for `COc1cc(Cl)cc(-c2ccc([C@H]3C[C@@H](OCC(=O)O)C3)cc2)c1` [Example 6, Cis-2-(3-(3′-chloro-5′-methoxy-[1,1′-biphenyl]-4-yl)cyclobutoxy)acetic acid] was 880 nM.
Take `CC(C)Oc1ccc(F)c(-c2ccc(CC3CC(C(=O)O)C3)cc2)c1` (single isomer, unassigned) [Example 49, 3-((2′-Fluoro-5′-isopropoxy-[1,1′-biphenyl]-4-yl)methyl)cyclobutanecarboxylic acid]: the concentration giving a half-maximal response (EC50) came out at 500 nM.
`O=C(O)CO[C@H]1C[C@@H](c2ccc(-c3cc(Oc4cccnc4)ccc3F)cc2)C1` [Example 28, Cis-2-(3-(2′-fluoro-5′-(pyridin-3-yloxy)-[1,1′-biphenyl]-4-yl)cyclobutoxy) acetic acid]: a half-maximal effect (EC50) was put at 660 nM.
On to `CC(C)Oc1ccc(F)c(-c2ccc(CC3CC(C(=O)O)C3)cc2)c1` (single isomer, unassigned) [Example 48, 3-((2′-Fluoro-5′-isopropoxy-[1,1′-biphenyl]-4-yl)methyl)cyclobutanecarboxylic acid], for which the concentration giving a half-maximal response (EC50) came to 790 nM.
On the same count and under the same terms, the value for `O=C(O)CO[C@H]1C[C@@H](c2ccc(-c3cc(Oc4cccc(F)c4)cnc3Cl)cc2)C1` [Example 22, Cis-2-(3-(4-(2-Chloro-5-(3-fluorophenoxy)pyridin-3-yl)phenyl)cyclobutoxy)acetic acid] was 360 nM; that for `O=C(O)CO[C@H]1C[C@@H](c2ccc(-c3cccc(C(=O)c4ccccc4)c3)cc2)C1` [Example 14, Cis-2-(3-(3′-benzoyl-[1,1′-biphenyl]-4-yl)cyclobutoxy) acetic acid] was 830 nM; that for `O=C(O)CO[C@H]1C[C@@H](c2ccc(-c3cc(Oc4ccccn4)ccc3F)cc2)C1` [Example 26, Cis-2-(3-(2′-fluoro-5′-(pyridin-2-yloxy)-[1,1′-biphenyl]-4-yl)cyclobutoxy) acetic acid] was 490 nM.
Compound `O=C(O)[C@H]1C[C@H](Oc2ccc(-c3cc(Oc4ccccc4)ccc3F)cc2)C1` [Example 64, Trans-3-((2′-fluoro-5′-phenoxy-[1,1′-biphenyl]-4-yl)oxy)cyclobutanecarboxylic acid] displayed an EC50 of 440 nM.
On the same count and under the same terms, for `O=C(O)[C@H]1CC1[C@H]1C[C@@H](c2ccc(-c3cc(Oc4ccccc4)ccc3F)cc2)C1` (stereo in doubt) [Example 40, 2-(3-(2′-Fluoro-5′-phenoxy-[1,1′-biphenyl]-4-yl)cyclobutyl)cyclopropanecarboxylic acid] the value was 9270 nM; for `CC(C)Oc1ccc(F)c(-c2ccc(CC3CC(CC(=O)O)C3)cc2)c1` (stereo not drawn) [Example 50, 2-(3-((2′-Fluoro-5′-isopropoxy-[1,1′-biphenyl]-4-yl)methyl)cyclobutyl)acetic acid], 650 nM.
Regarding `CC1(C)Cc2cc(Cl)cc(-c3ccc([C@H]4C[C@@H](OCC(=O)O)C4)cc3)c2O1` [Example 24, Cis-2-(3-(4-(5-chloro-2,2-dimethyl-2,3-dihydrobenzofuran-7-yl)phenyl)cyclobutoxy) acetic acid], a half-maximal effect (EC50) was put at 2900 nM.

As usually defined, the EC50 is the concentration needed to bring the measured effect to its halfway point.
